Laboratory results from PubChem BioAssay AID1996.
Values after ≈ are worked out from the molar mass of the structure shown.

Conditions: buffer; pH 7.4; 200.0 µM

| Structure (SMILES) | solubility kinetic [µg/mL] |
| --- | --- |
| CCCN1CCC(N(CCc2ccccc2)Cc2ccccc2)CC1 | 32.5 (≈ 96.6 µM) |
| Nc1nc(-c2cc(Cl)cc(Cl)c2OC(F)F)cs1 | 2.3 (≈ 7.39 µM) |
| CC(C)CCn1c(N2CCCC2)nc2c1c(=O)n(C)c(=O)n2C | 46.6 (≈ 146 µM) |
| Cn1c(O)c(C=Nc2ccccc2-c2ccccc2)c(=O)n(C)c1=O | < 0.2 |
| CC1CCN(C(=O)COC(=O)CCC(=O)c2ccc(F)cc2)CC1 | > 50.3 |
| O=C1CC(c2ccccc2)Cc2nc(NC3CC3)ncc21 (stereo unspecified) | 2.7 (≈ 9.67 µM) |
| CCOC(=O)C1CCCN(CC(=O)Nc2cccc(C(C)=O)c2)C1 (stereo unspecified) | 46 (≈ 138 µM) |
| Cc1ccc(C(OC(=O)c2ccco2)C(=O)NC2CCCC2)cc1 (stereo unspecified) | 2 (≈ 6.11 µM) |
| CCc1cccc(C)c1NC(=O)C1CC(=O)N(C2CCCC2)C1 (stereo unspecified) | > 47.2 |
| Cc1ccccc1-c1nnc(SCC(=O)N(C)C2CCS(=O)(=O)C2)n1C (stereo unspecified) | > 59.2 |
| O=C(O)/C=C/C(=O)NCCc1cccc(Cl)c1 | > 38.1 |
| CC(C)(C)c1ccc(OCc2cnc(Cl)s2)cc1 | < 0.6 |
| O=C(NC(=S)NCc1ccc(Cl)cc1Cl)c1ccco1 | 1.4 (≈ 4.25 µM) |
| Cc1ccn2c(NC3CCCC3)c(-c3ccccn3)nc2c1 | 30.6 (≈ 105 µM) |
| COCC(=O)N1CCCC(C(=O)c2ccc3c4c(cccc24)CC3)C1 (stereo unspecified) | 49.8 (≈ 148 µM) |
| O=C(CC(=O)NCCc1ccccc1)NCCc1ccccc1 | > 46.6 |
| Cc1cc(C)c2c(-c3ccc(F)cc3)c(C#N)c(=O)n(C)c2n1 | 0.6 (≈ 1.95 µM) |
| O=C(O)c1cc(Oc2ccc(C(F)(F)F)cc2Cl)ccc1[N+](=O)[O-] | > 54.2 |
| Cc1ccc(CONC(=O)c2cccc([N+](=O)[O-])c2)cc1 | > 42.9 |
| O=C(NCCc1ccc(Cl)cc1Cl)c1cccnc1 | > 44.3 |
| CCCNc1nc2c(c(=O)[nH]c(=O)n2C)n1CCOc1ccccc1 | 4 (≈ 11.6 µM) |
| Cn1c(=O)c2nc(-c3ccccc3)c(-c3ccccc3)nc2n(C)c1=O | 0.9 (≈ 2.61 µM) |

| Structure (SMILES) | solubility kinetic [µg/mL] |
| --- | --- |
| Nc1nnc(CC(=O)Nc2ccccc2)s1 | > 35.1 |
| CCc1ccc2oc(C(=O)Nc3nonc3CC)c(C)c2c1 | < 0.2 |
| CCOCCOC(=O)c1[nH]c2c(c1C)C(=O)CC(c1ccccc1)C2 (stereo unspecified) | 2.3 (≈ 6.74 µM) |
| Cc1cc(C)c(C#N)c(OCC(=O)Nc2ccccc2)n1 | 31.7 (≈ 113 µM) |
| Cn1c(S(=O)(=O)O)nc2ccccc21 | 31.5 (≈ 148 µM) |
| Cc1cc(C)nc(NC(=O)c2ccc([N+](=O)[O-])c(C)c2)n1 | 13.3 (≈ 46.5 µM) |
| CN1CCN(C(=S)Nc2ccc(S(N)(=O)=O)cc2)CC1 | > 47.2 |
| C[N+](C)(C)CCCCCC[N+](C)(C)C.[Br-] | > 54.3 |
| C=CCn1c(SCC(=O)Nc2cccc(S(N)(=O)=O)c2)nc2sc(C)c(C)c2c1=O | 3 (≈ 6.46 µM) |
| Cc1nc(-c2ccc(-c3ccon3)s2)no1 | 16.6 (≈ 71.2 µM) |
| COc1ccc2c(C(=O)CCl)c[nH]c2c1 | 5.3 (≈ 23.7 µM) |
| CCCn1cc(C(=O)OCC)c(=O)c2cc(F)c(F)cc21 | 34.9 (≈ 118 µM) |
| c1ccc(-c2nc(NCc3cccs3)c3ccccc3n2)cc1 | 0.7 (≈ 2.21 µM) |
| Cc1cc(=O)[nH]c(SCc2ccc(Cl)cc2Cl)n1 | 1.2 (≈ 3.98 µM) |
| COc1ccccc1NS(=O)(=O)c1ccc2oc(N)nc2c1 | > 47.9 |
| CCOC1C(=O)NC(=O)N1Cc1ccccc1 (stereo unspecified) | 29.8 (≈ 127 µM) |
| CCOc1ccc2oc(C(=O)OCC(=O)NC(=O)NC)c(C)c2c1 | 1.9 (≈ 5.68 µM) |
| Cc1ccc(C(C[N+](=O)[O-])c2c(N)n(C)c(=O)n(C)c2=O)cc1 (stereo unspecified) | > 47.7 |
| Cl.OC1(c2ccccc2)CCN(Cc2ccccc2)CC1 | 37.6 |
| O=C(O)c1cc(-c2ccc3ccccc3c2)nc2ccc(F)cc12 | > 47.6 |
| O=C(Nc1ccncc1)Nc1cccc(Cl)c1 | 35.9 (≈ 145 µM) |
| CC(C)N1CC(COc2ccc(Cl)cc2Cl)OC1=O (stereo unspecified) | > 45.6 |

| Structure (SMILES) | solubility kinetic [µg/mL] |
| --- | --- |
| Cc1noc(C)c1COC(=O)c1ccc(N(C)C)cc1 | 1.6 (≈ 5.83 µM) |
| CC(C)CC(=O)N1CCN(C(=O)c2ccco2)CC1 | > 39.6 |
| O=C(NCCc1c[nH]c2ccccc12)c1ccccc1Cl | 23.2 (≈ 77.7 µM) |
| COc1ccc(Br)cc1/C=C/C(=O)NCC(=O)O | > 47.1 |
| CCOC(=O)c1c(C)[nH]c(C(=O)NCC(c2ccco2)N2CCCCC2)c1C (stereo unspecified) | 2 (≈ 5.16 µM) |
| S=c1[nH]c2ccccc2n1CCOc1ccccc1 | 20.2 (≈ 74.7 µM) |
| CC(C)NC(=O)c1ccc(N(Cc2ccccc2)S(C)(=O)=O)cc1 | 11.1 (≈ 32 µM) |
| COc1ccc(OC)c(S(=O)(=O)n2ccnc2C(C)C)c1 | 46.1 (≈ 149 µM) |
| Cc1cc(NC(=O)OC2CCCCC2)ccc1[N+](=O)[O-] | 0.4 (≈ 1.44 µM) |
| CCc1nc2ccccc2c(C(=O)OCC(=O)NC2CC2)c1C | > 46.9 |
| CCN1CCCC1CNC(=O)c1cc2cc(F)ccc2[nH]1 (stereo unspecified) | > 43.4 |
| Cc1ccc(NC2=CC(=O)CC(C)(C)C2)cc1F | 31.5 (≈ 127 µM) |
| C=CCN(CC=C)CC(=O)Nc1cccc(Oc2cnccn2)c1 | > 48.7 |
| CC1CC(C)CN(C(=O)CN2C(=O)NC3(CCCCCC3)C2=O)C1 (stereo unspecified) | > 50.3 |
| Cn1cccc1C(=O)OCC(=O)N1CC(=O)Nc2ccccc21 | 45.1 (≈ 144 µM) |
| CN1C(C(=O)c2ccccc2)=C(N)c2ccccc2S1(=O)=O | 40.9 (≈ 130 µM) |
| COc1cc(C)c(CN2CCSCC2)cc1C | 12.1 (≈ 48.1 µM) |
| O=C(NCCCn1ccnc1)/C(=C/c1ccco1)NC(=O)c1cccs1 | 50.1 (≈ 135 µM) |
| CCn1c(SCc2ccccc2)nc2c1c(=O)[nH]c(=O)n2C | 39.3 (≈ 124 µM) |
| O=C(O)CC(CC(=O)N1CCOCC1)c1ccccc1 (stereo unspecified) | > 41.6 |
| Cc1ccc(S(=O)(=O)NC(=O)c2cccc(C)c2)cc1 | > 43.4 |
| O=c1[nH]cccc1-c1nc2ccccc2n1Cc1ccc(Cl)cc1 | > 50.4 |

| Structure (SMILES) | solubility kinetic [µg/mL] |
| --- | --- |
| CCOC(=O)CNC(=O)c1c(C)nn(C)c1Cl | > 39 |
| O=C(CS(=O)(=O)c1ccccc1)Nc1ccc(Cl)cn1 | > 46.6 |
| CC1CCC(NC(=O)c2cc3c(s2)CCCC3)CC1 (stereo unspecified) | 2.8 (≈ 10.1 µM) |
| COc1ccccc1Nc1nc(-c2sc(N)nc2C)cs1 | 19.2 (≈ 60.3 µM) |
| CCC(=O)OCCNc1cc(SCCC(=O)OC)c2nonc2c1[N+](=O)[O-] | 54.9 (≈ 138 µM) |
| CN(Cc1ccccc1)c1ncc(C=O)s1 | 27.8 (≈ 120 µM) |
| CCOC(=O)c1cnc2c(cnn2C)c1NCCCn1ccnc1 | > 49.3 |
| CCOC(=O)C1CCCN(C(=O)c2cccc3ccccc23)C1 (stereo unspecified) | > 46.7 |
| CN(C)CCn1c(=S)[nH]c2ncccc2c1=O | 35.8 (≈ 143 µM) |
| CSc1ccc(S(=O)(=O)NC2CC2)cc1 | > 36.5 |
| Cc1ccc(C)c(-c2csc(NC(=O)C3=COCCO3)n2)c1 | 11.3 (≈ 35.7 µM) |
| O=C(CC1NCCN(Cc2ccccc2)C1=O)Nc1ccc(Cl)cc1 (stereo unspecified) | 46.8 (≈ 131 µM) |
| CCOc1cc(C)c(S(=O)(=O)N2CCCCC2)cc1C | 14.5 (≈ 48.8 µM) |
| Cc1cc(/C=C2/C(=O)NC(=O)N(C)C2=O)c(C)n1-c1ccccc1 | 1.1 (≈ 3.4 µM) |
| CC(=O)Nc1ccc(C(=O)N2CC(=O)NC(=O)C2)cc1 | > 41.3 |
| COc1cc(CNCC2CCCO2)ccc1OCC(N)=O.Cl (stereo unspecified) | 49 |
| COc1cc(C)ccc1OCC(=O)NC1CCCCCC1 | 40.5 (≈ 139 µM) |
| Cc1cc(C(=O)COc2ccc(C#N)cc2)c(C)n1CC1CCCO1 (stereo unspecified) | 16.7 (≈ 49.3 µM) |
| O=C(NCCO)C(=O)Nc1cc2c3c(c1)CCC(=O)N3CCC2 | > 47.6 |
| Cc1cc(C)cc(OCC(=O)Nc2ccc(CN3CCCCC3)cc2)c1 | 49.9 (≈ 142 µM) |
